The source made the active and inactive calls. How the calls were made is not given here.
These compounds were tested against Induced myeloid leukemia cell differentiation protein Mcl-1 (Homo sapiens) (UniProt Q07820) (assay: blockers of Bid binding to Mcl-1 – biochemical, TR-FRET, dose response (AID 1418)). Conditions: Mcl-1/Bid peptide binding, TR-FRET (europium/Dy647), 2 hr.
Sequence of Induced myeloid leukemia cell differentiation protein Mcl-1 (Homo sapiens) (Q07820 whole entry, looked up): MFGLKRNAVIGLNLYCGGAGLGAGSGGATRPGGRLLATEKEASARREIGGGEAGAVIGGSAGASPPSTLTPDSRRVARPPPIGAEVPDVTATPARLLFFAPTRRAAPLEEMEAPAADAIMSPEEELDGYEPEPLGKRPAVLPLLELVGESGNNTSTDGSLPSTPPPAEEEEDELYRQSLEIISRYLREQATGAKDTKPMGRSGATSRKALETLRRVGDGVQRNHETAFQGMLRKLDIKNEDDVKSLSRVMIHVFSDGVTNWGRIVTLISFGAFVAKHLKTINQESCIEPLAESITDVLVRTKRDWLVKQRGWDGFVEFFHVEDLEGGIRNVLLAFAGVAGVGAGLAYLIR
For CC(CCC(=O)Nc1nncs1)C(=O)O (stereo unspecified), the IC50 was > 54 µM (inactive). With COc1ccccc1NC(=O)CSc1nc2ccccc2cc1Cc1ccccc1 the IC50 was > 54 µM (inactive). In the case of O=c1/c(=C\c2cc([N+](=O)[O-])cc([N+](=O)[O-])c2O)sc2nc3ccccc3n12, the IC50 is reported as 1.07 µM. In the case of Cc1ccc(S(=O)(=O)N2CCOCC2)cc1C(=O)N1C(=O)c2cccc(N)c2C1=O, the IC50 is reported as > 54 µM (inactive). In the case of Cc1cc(=O)c2ccc(C(F)(F)F)cc2[nH]1, the IC50 is reported as > 54 µM (inactive). CC(C)C1(C)N=C(c2ncccc2C(=O)O)NC1=O (stereo unspecified) was tested, and the IC50 was > 54 µM (inactive). In the case of CCOC(=O)c1c(-c2ccco2)csc1NC(=O)CSc1nnc(N)s1, the IC50 is reported as > 54 µM (inactive). With C/C(=N/NC(=O)c1ccccn1)c1ccc(O)cc1 the IC50 was > 54 µM (inactive). In the case of Cc1cccc(C(=O)Nc2ccnc(-c3cccnc3)n2)c1, the IC50 is reported as > 54 µM (inactive). In the case of Cc1ccc(C)c(NC(=O)C2CCCN2/C=C/C(=O)C(F)(F)F)c1 (stereo unspecified), the IC50 is reported as > 54 µM (inactive). With COC(=O)c1ccc(NC(=O)c2ccccc2N(C)S(=O)(=O)c2ccccc2)cc1 the IC50 was > 54 µM (inactive). CCOC(=O)N1CCN(c2nc(C)c3c(n2)CCCC3=O)CC1 was tested, and the IC50 was > 54 µM (inactive). In the case of O=C(NC(=S)Nc1ccc(S(=O)(=O)N2CCCCC2)cc1)c1cccs1, the IC50 is reported as > 54 µM (inactive). CC1CC(C)CN(CCOCCSc2ccccc2)C1 (stereo unspecified) was tested, and the IC50 was > 54 µM (inactive). With O=C(O)c1ccccc1NS(=O)(=O)c1ccc(NNC(=S)Nc2ccc(OC(F)F)cc2)c([N+](=O)[O-])c1 the IC50 was 0.62 µM. For O=C(/C=C/N1CCOCC1)c1coc2ccccc12, the IC50 was > 54 µM (inactive). In the case of O=C1c2ccccc2C(=O)C1Cc1cccc2ccccc12, the IC50 is reported as 8.94 µM. For CCOc1ccc(NC(=O)c2oc3ccccc3c2NC(=O)CC)cc1, the IC50 was > 54 µM (inactive). In the case of Cc1c(NC(=O)COC(=O)c2cc(-c3ccc(-c4ccccc4)cc3)nc3ccccc23)c(=O)n(-c2ccccc2)n1C, the IC50 is reported as 0.58 µM. For O=C1C(=Cc2cccn2-c2ccccc2)C(=O)c2ccccc21, the IC50 was 2.58 µM. CC(C(=O)O)n1nc2ccccc2n1 (stereo unspecified) was tested, and the IC50 was > 54 µM (inactive). For COc1cc(CNc2ccc(O)cc2)cc(Br)c1OCc1ccccc1F, the IC50 was > 54 µM (inactive). In the case of N=C1/C(=C\c2ccc(-c3ccc(C(=O)O)cc3)o2)C(=O)N=C2SC=C(c3ccccc3)N12, the IC50 is reported as 2.76 µM. With CC(=O)C1=C(C)NC(SCC(N)=O)=C(C#N)C1c1cccnc1 (stereo unspecified) the IC50 was > 54 µM (inactive). With O=C(Nc1sc2c(c1C(=O)O)CCC2)c1ccccc1 the IC50 was > 54 µM (inactive). O=C(NCc1nc2ncc(Br)cc2[nH]1)c1ccccc1 was tested, and the IC50 was > 54 µM (inactive). With Cc1cc(=O)[nH]c(SCC(=O)c2ccc3c(c2)NC(=O)CO3)n1 the IC50 was > 54 µM (inactive). For O=C1N=C2N(CCN3CCCCC3)c3ccccc3N2/C1=C\c1ccc([N+](=O)[O-])o1, the IC50 was > 54 µM (inactive). With CC(C)(C)CC(=O)O/N=C(\N)c1ccncc1 the IC50 was > 54 µM (inactive). Cc1ccc(S(=O)(=O)N/N=C/c2cnn(C)c2C)cc1 was tested, and the IC50 was > 54 µM (inactive). With COc1ccc(N/C(=C(/C(Cl)=C(Cl)Cl)[N+](=O)[O-])n2nnc3ccccc32)cc1OC the IC50 was > 54 µM (inactive). For O=C(Nc1ccc(-c2nc3cc(Cl)ccc3c(=O)o2)cc1)c1ccco1, the IC50 was > 54 µM (inactive). In the case of O=P(O)(O)C#Cc1ccccc1, the IC50 is reported as > 54 µM (inactive). In the case of COc1ccc(C(=O)N2CCN(Cc3ccccc3C)CC2)cc1OC, the IC50 is reported as > 54 µM (inactive). CN(C)c1ccc(-c2nn3c(-c4ccc(Cl)cc4Cl)nnc3s2)cc1 was tested, and the IC50 was 0.77 µM. With Cc1ccc(S(=O)(=O)/N=S(\C)C(C)C)cc1 (stereo unspecified) the IC50 was > 54 µM (inactive). Cc1ccc(-n2c(SCC(=O)NCc3ccco3)nc3sc4c(c3c2=O)CC(C)(C)SC4)cc1 was tested, and the IC50 was > 54 µM (inactive). With Cc1ccc(NC(=O)c2ccc3ncsc3c2)cc1S(=O)(=O)N(C)C the IC50 was “inactive”. Work on O=C1OC(c2cccs2)=N/C1=C/c1ccc(-c2cccc(C(=O)O)c2)o1 yielded an IC50 of 2.68 µM. For O=C(Cn1c(C(F)(F)F)nc2ccccc21)c1ccc(F)cc1, the IC50 was > 54 µM (inactive). With C/C(=N/NC(=O)c1cc(-c2cccc([N+](=O)[O-])c2)n[nH]1)c1ccc(Cl)cc1 the IC50 was 2.27 µM. Compound COC(=O)c1ccc2nc(Nc3nc4ccc(F)cc4s3)sc2c1 has an IC50 of 0.49 µM. For COc1ccc(-n2cc(-c3ccc(OC(F)F)cc3)[n+]3c2CCCCC3)cc1, the IC50 was > 54 µM (inactive). COc1ccc(OC(=O)c2ccncc2)cc1 was tested, and the IC50 was > 54 µM (inactive). Compound C#CCOCCOCCOCCNc1nc(N2CCN(C(=O)[C@H](Cc3ccc(O)cc3)n3cc([C@@H](N)C(C)CC)nn3)CC2)nc(N2CCN(C(=O)[C@H](Cc3cc4ccccc4[nH]3)n3cc([C@@H](N)C(C)CC)nn3)CC2)n1 (stereo partly specified) has an IC50 of 0.82 µM. In the case of O=C(O)COc1ccccc1C(Nc1ccccn1)c1cc(Cl)c2cccnc2c1O (stereo unspecified), the IC50 is reported as 5.42 µM. CCc1ccc(C(CC(=O)c2ccc(Cl)cc2)C(=O)O)cc1 (stereo unspecified) was tested, and the IC50 was > 54 µM (inactive). With CC(C)[C@H](NC(=O)NCCC1=CCCCC1)C(=O)O the IC50 was > 54 µM (inactive). With COc1cc(S(=O)(=O)Nc2cccc(C)c2)ccc1NC(=O)c1ccncc1 the IC50 was > 54 µM (inactive). In the case of CC(=O)c1c(N=CN(C)C)nc(C)nc1-c1ccccc1, the IC50 is reported as > 54 µM (inactive). Cc1sc(NC(=O)c2sc3nc4c(C)cccc4cc3c2N)c(C#N)c1C gave an IC50 of 0.95 µM. COc1ccc(NC(=S)NNc2ccc(S(=O)(=O)Nc3ccccc3C(=O)O)cc2[N+](=O)[O-])cc1 showed an IC50 of 22.3 µM. In the case of COc1ccc(C2SCC(=O)N2CCCN(C)C)cc1 (stereo unspecified), the IC50 is reported as > 54 µM (inactive). In the case of O=C(Nc1nnc(-c2ccco2)s1)C1CC1, the IC50 is reported as > 54 µM (inactive). In the case of O=C(CNc1ccc2ccccc2c1)N/N=C/c1ccc([N+](=O)[O-])o1, the IC50 is reported as > 54 µM (inactive). Cc1cccc(N(CC(=O)NC2CCCC2)C(=O)c2cc3cc4cccc(C)c4nc3s2)c1C was tested, and the IC50 was > 54 µM (inactive). With Cc1ccc(S(=O)(=O)/N=C(\CCl)N2CCOCC2)cc1 the IC50 was > 54 µM (inactive). For COc1ccc(-c2nc3ccccc3c(=O)n2CCOc2cccc(C)c2C)cc1, the IC50 was > 54 µM (inactive). O=C(/C=C/Nc1cccc(F)c1)c1ccco1 was tested, and the IC50 was > 54 µM (inactive). CN(C)c1ccc(-c2nnc(-c3ccc(S(=O)(=O)C(F)F)cc3)o2)cc1 showed an IC50 of 2.48 µM. With CCc1c(C(=O)Nc2cc(C)ccc2OC)[nH]c(C)c1C(C)=O the IC50 was > 54 µM (inactive). Compound C#CCn1cc(/C=N/NC(=O)COc2cccc3cccnc23)c2ccccc21 has an IC50 of 0.86 µM. In the case of COc1ccc(CN2C(=O)c3cccnc3C2Nc2ccc(OC)c(Cl)c2)cc1 (stereo unspecified), the IC50 is reported as 0.74 µM. With Cc1cc(/C=N/NC(=O)c2cccs2)c(C)n1-c1ccccc1 the IC50 was > 54 µM (inactive). In the case of NC(=O)COc1c(-c2ccccc2)oc2ccccc2c1=O, the IC50 is reported as > 54 µM (inactive). With NC(=O)c1cnn2c(-c3cccc(C(F)(F)F)c3)ccnc12 the IC50 was > 54 µM (inactive). For Cc1ccc(-n2cccc2/C=C2/C(=N)N3C(=NC2=O)SN=C3S(C)(=O)=O)cc1Cl, the IC50 was 10.9 µM. COCCN1C(=O)C(=O)/C(=C(/O)c2ccc(S(=O)(=O)N3CCOCC3)cc2)C1c1cccc(Cl)c1 (stereo unspecified) was tested, and the IC50 was > 54 µM (inactive). COc1ccc(C2C(C#N)=C(N)OC3=C2C(=O)CCC3)cc1OC (stereo unspecified) was tested, and the IC50 was > 54 µM (inactive). O=C(Cn1nc(C(=O)O)c2ccccc2c1=O)Nc1ccc2c(c1)C(=O)c1ccccc1C2=O showed an IC50 of 2.93 µM. Cc1ccc(OCc2ccc(C(=O)Nc3nc4ccccc4n3Cc3ccccc3)o2)c([N+](=O)[O-])c1 was tested, and the IC50 was > 54 µM (inactive). In the case of CN1CCCCC1c1ccc(-c2cccnc2)nc1 (stereo unspecified), the IC50 is reported as “inactive”. N=C1S/C(=C\c2ccc(-c3cccc(Cl)c3)o2)C(=O)N1c1nccs1 showed an IC50 of 1.05 µM. In the case of Cc1ccc(S(=O)(=O)N(C)CC(O)Cn2c3ccccc3c3ccccc32)cc1 (stereo unspecified), the IC50 is reported as > 54 µM (inactive). For COc1ccc(NC(=O)Nc2nnc(CC(=O)NCc3ccccc3)s2)cc1, the IC50 was > 54 µM (inactive). COc1ccc2[nH]c3c(=O)n(Cc4ccco4)cnc3c2c1 was tested, and the IC50 was > 54 µM (inactive). In the case of CC(C)N1C(=O)/C(=C/c2nc3ccccc3c(=O)n2-c2ccccc2)c2ccccc21, the IC50 is reported as 0.99 µM. In the case of CCCc1nc2oc3cc(OC)ccc3c(=O)c2c(=O)n1CCc1ccccc1, the IC50 is reported as > 54 µM (inactive). O=C(c1ccccc1)N1CCN(Cc2ccccc2Br)CC1 was tested, and the IC50 was > 54 µM (inactive). With COc1ccc(Nc2nc(C)c3ccccc3n2)cc1 the IC50 was > 54 µM (inactive). For O=C(Nc1ccc2c(c1)OCCO2)NC1(C(F)(F)F)Oc2ccccc2O1, the IC50 was > 54 µM (inactive). CSC(=NCc1cccnc1)NS(=O)(=O)c1cccs1 was tested, and the IC50 was > 54 µM (inactive). With Cc1nc(C)n(CC(O)COc2ccc3c(c2)CCC3)n1 (stereo unspecified) the IC50 was > 54 µM (inactive). Work on Cc1cc(=O)oc2cc(OCC(=O)N/N=C/c3cc([N+](=O)[O-])ccc3O)ccc12 yielded an IC50 of 5.58 µM. With CCN1CCc2c(OCc3ccc(C(=O)OC)o3)cccc2C1=O the IC50 was > 54 µM (inactive). Compound C=CS(=O)(=O)c1sc(Cl)c(N2CCOCC2)c1[N+](=O)[O-] has an IC50 of 1.77 µM. For Cc1ccccc1OCCNC(=O)CNC(=O)c1ccccc1O, the IC50 was > 54 µM (inactive). COc1ccc(C(=O)Nc2cccc(-c3cc4ccccc4oc3=O)c2)cc1[N+](=O)[O-] showed an IC50 of 1.24 µM. For COC(=O)c1c(C)[nH]c(C(=O)C(C)[N+]23CCN(CC2)CC3)c1C (stereo unspecified), the IC50 was 2.85 µM. CNC(=O)CC1C(=O)N(c2ccc(OC)cc2)C(=S)N1NC(=O)c1cccc(F)c1 (stereo unspecified) was tested, and the IC50 was > 54 µM (inactive). Cc1cccc(OCc2nc(C#N)c(NCc3ccc4c(c3)OCO4)o2)c1 was tested, and the IC50 was > 54 µM (inactive). With Cc1nc2sc(C(c3cccs3)N3CCOCC3)c(O)n2n1 (stereo unspecified) the IC50 was > 54 µM (inactive). COc1ccc(NC(=O)Cn2nnc(-c3ccccc3NC(=O)c3ccco3)n2)cc1 gave an IC50 of 6.22 µM. With C[N+](C)(C)c1ccc(/C=N/Nc2nc(Cl)c(C#N)c(Cl)c2Cl)cc1 the IC50 was > 54 µM (inactive). In the case of CCOC(=O)c1c(C)oc2c1c(C(c1cccnc1)N1CCOCC1)c(O)c1ccccc12 (stereo unspecified), the IC50 is reported as 0.85 µM. O=C(CNC(=O)c1ccc([N+](=O)[O-])cc1)N/N=C\c1ccc(OC(=O)c2ccccc2)cc1 was tested, and the IC50 was 11 µM.

— PubChem BioAssay AID1418 (Emory University Molecular Libraries Screening Center, 2008)
